Laboratory results from US20240122179A1, “AUXINIC HERBICIDES AND METHODS OF USE THEREOF” (CORTEVA AGRISCIENCE LLC, priority 2021, published 2024).
Where two headings read alike, the source gives them in different places.

Key:
Assay in all cases: Postemergence herbicide evaluation, percent reduction in plant size vs untreated control, 21 days after treatment
Amaranthus rudis (AMATA) = format: in vivo, Amaranthus rudis (tall water hemp); conditions: Amaranthus tuberculatus, post-emergence, 504 h, AMATA, postemergence, read-out: Control/Injury; for pest or weed control at 140 g/ha: rate 140 g ae/ha; for pest or weed control at 280 g/ha: rate 280 g ae/ha
Procedure, shortened: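 Greenhouse-grown tall waterhemp (25-28° C, 16 h light) at the 2-8 leaf stage, treated by track sprayer at 187 L/ha with compound at 140 or 280 g ae/ha in acetone/DMSO-based spray solution with crop oil and surfactant. 3-4 replicates per treatment, randomized complete block; plant size reduction versus untreated control measured 21 days after treatment.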

[1] = system: Ambrosia artemisiifolia (AMBEL); format: in vivo, Ambrosia artemisiifolia (common ragweed); conditions: post-emergence, 504 h, AMBEL, postemergence, read-out: Control/Injury; for pest or weed control at 140 g/ha: rate 140 g ae/ha; for pest or weed control at 280 g/ha: rate 280 g ae/ha
Procedure, shortened: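 Greenhouse-grown plants (25–28 °C, 16 h light) were sprayed postemergence at the 2–8 leaf stage with 140 or 280 g ae/ha in acetone/DMSO-based spray solution with crop oil and surfactant, at 187 L/ha by track sprayer. There were 3–4 replicates. Plant size was measured 21 days after treatment versus untreated plants.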

Kochia scoparia (KCHSC) = format: in vivo; conditions: Bassia scoparia, post-emergence, 504 h, KCHSC, postemergence, read-out: Control/Injury; for pest or weed control at 140 g/ha: rate 140 g ae/ha; for pest or weed control at 280 g/ha: rate 280 g ae/ha
Procedure, shortened: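 Greenhouse-grown plants (25-28 °C, 16 h light) at the 2 to 8 leaf stage were track-sprayed postemergence at 140 or 280 g ae/ha in acetone/DMSO-based spray solution with crop oil and surfactant, at 187 L/ha, in 3-4 randomized replicates.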

[2] = system: Amaranthus palmeri (AMAPA); format: in vivo, Amaranthus palmeri (Palmer amaranth); conditions: post-emergence, 504 h, postemergence, read-out: Control/Injury; for pest or weed control at 140 g/ha: rate 140 g ae/ha; for pest or weed control at 280 g/ha: rate 280 g ae/ha
Procedure, shortened: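 Greenhouse-grown Palmer amaranth (25 to 28° C, 16 h light) sprayed postemergence at the 2 to 8 leaf stage with 140 or 280 g ae/ha in acetone/DMSO-based solution containing crop oil concentrate, 187 L/ha by track sprayer. Three to four replicates; plant size measured 21 days after treatment as percent reduction versus untreated control.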

[3] = system: Conyza canadensis (L.) (ERICA); format: in vivo, Conyza canadensis (L.) (Horseweed); conditions: Erigeron canadensis, post-emergence, 504 h, ERICA, postemergence, read-out: Control/Injury; for pest or weed control at 140 g/ha: rate 140 g ae/ha; for pest or weed control at 280 g/ha: rate 280 g ae/ha
Procedure, shortened: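 Horseshoe-weed (horseweed) seedlings at 2 to 8 leaf stage in greenhouse (25-28° C, 16 h light), sprayed postemergence at 140 or 280 g ae/ha in acetone/DMSO-based spray solution, 187 L/ha track-sprayer. Randomized complete block, 3-4 replicates; plant size measured 21 days after treatment as percent reduction vs untreated controls.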

[4] = percent reduction vs untreated, 21 days after treatment
[5] = R-AMAPA, percent reduction vs untreated control, 21 days after treatment
[6] = percent reduction vs untreated control, 21 days after treatment

Row | Compound | pest or weed control at 140 g/ha (Amaranthus rudis (AMATA)) | pest or weed control at 280 g/ha (Amaranthus rudis (AMATA)) | pest or weed control at 140 g/ha [1] | pest or weed control at 280 g/ha [1] | pest or weed control at 140 g/ha (Kochia scoparia (KCHSC); [4]) | pest or weed control at 280 g/ha (Kochia scoparia (KCHSC); [4]) | pest or weed control at 140 g/ha [2, 5] | pest or weed control at 280 g/ha [2, 5] | pest or weed control at 140 g/ha [3, 4] | pest or weed control at 280 g/ha [3, 4] | pest or weed control at 140 g/ha ([2]; AMAPA) | pest or weed control at 280 g/ha ([2]; AMAPA) | pest or weed control at 140 g/ha [3] | pest or weed control at 280 g/ha [3] | pest or weed control at 140 g/ha (Kochia scoparia (KCHSC)) | pest or weed control at 280 g/ha (Kochia scoparia (KCHSC)) | pest or weed control at 140 g/ha [3, 6] | pest or weed control at 280 g/ha [3, 6]
1 | COc1c(Cl)ccc(Cl)c1C(=O)O/N=C(\N)CCCCCC/C(N)=N/OC(=O)c1c(Cl)ccc(Cl)c1OC [Compound A-147] | 59% | 49% | 80% | 81% | 93% | 88% | 43% | 38% | 50% | 60% | – | – | – | – | – | – | – | –
2 | CCN(CC)C(=O)c1c(Cl)ccc(Cl)c1OC [Compound A-107] | 2% | 18% | 10% | 18% | 0% | 0% | – | – | – | – | 9% | 18% | 3% | 5% | – | – | – | –
3 | COc1c(Cl)ccc(Cl)c1C(=O)Oc1ncn(-c2ccccc2)n1 [Compound A-121] | 75% | 94% | 88% | 98% | 83% | 96% | – | – | – | – | 75% | 85% | 97% | 99% | – | – | – | –
4 | COc1c(Cl)ccc(Cl)c1C(=O)ONC(N)=O [Compound A-67] | 0% | 2% | 3% | 3% | – | – | 13% | 10% | – | – | – | – | – | – | 3% | 2% | 2% | 3%
5 | COc1c(Cl)ccc(Cl)c1C(=O)N1CCOCC1 [Compound A-65] | 15% | 23% | 40% | 55% | – | – | 33% | 33% | – | – | – | – | – | – | 28% | 37% | 8% | 28%
6 | COc1c(Cl)ccc(Cl)c1C(=O)n1oc2ccccc2c1=O [Compound A-130] | 20% | 28% | 40% | 48% | 45% | 45% | – | – | – | – | 18% | 20% | 13% | 28% | – | – | – | –
7 | CCCNNC(=O)c1c(Cl)ccc(Cl)c1OC [Compound A-112] | 13% | 20% | 18% | 38% | 0% | 18% | – | – | – | – | 18% | 33% | 10% | 10% | – | – | – | –
8 | COc1c(Cl)ccc(Cl)c1C(=O)ON(C)C(=O)c1ccccc1 [Compound A-71] | 83% | 80% | 83% | 93% | – | – | 70% | 82% | – | – | – | – | – | – | 85% | 87% | 85% | 92%
9 | C=CCONC(=O)c1c(Cl)ccc(Cl)c1OC [Compound A-101] | 18% | 33% | 25% | 15% | 0% | 0% | – | – | – | – | 18% | 13% | 0% | 8% | – | – | – | –
10 | COc1c(Cl)ccc(Cl)c1C(=O)OCc1cc(COC(=O)c2c(Cl)ccc(Cl)c2OC)cc(COC(=O)c2c(Cl)ccc(Cl)c2OC)c1 [Compound A-123] | 0% | 8% | 5% | 5% | 0% | 0% | – | – | – | – | 2% | 3% | 0% | 0% | – | – | – | –
11 | COc1c(Cl)ccc(Cl)c1C(=O)Oc1noc2ccccc12 [Compound A-122] | 38% | 50% | 73% | 97% | 80% | 93% | – | – | – | – | 28% | 45% | 95% | 100% | – | – | – | –
12 | COc1c(Cl)ccc(Cl)c1C(=O)NNc1ccc([N+](=O)[O-])cc1 [Compound A-132] | 18% | 18% | 38% | 33% | 8% | 15% | – | – | – | – | 20% | 30% | 23% | 8% | – | – | – | –
13 | COc1c(Cl)ccc(Cl)c1C(=O)NNc1ccccc1 [Compound A-131] | 40% | 30% | 48% | 58% | 30% | 38% | – | – | – | – | 23% | 38% | 28% | 30% | – | – | – | –
14 | COC(=O)C(C(=O)OC)C(=O)c1c(Cl)ccc(Cl)c1OC [Compound A-135] | 0% | 5% | 23% | 35% | 3% | 3% | – | – | – | – | 6% | 10% | 10% | 25% | – | – | – | –
